Source: BigSolDB 2.1

O=[N+]([O-])/N=C1\NCCN1Cc1ccc(Cl)nc1
solubility (mole fraction)
Conditions | 283.15 K | 288.15 K | 293.15 K | 298.15 K | 303.15 K | 308.15 K | 313.15 K | 318.15 K | 323.15 K
in acetone | 0.00862 | 0.0102 | 0.012 | 0.014 | 0.0163 | 0.0188 | 0.0218 | 0.0249 | 0.0285
in ethanol | 0.000303 | 0.0004 | 0.00053 | 0.000699 | 0.000895 | 0.00115 | 0.00148 | 0.00191 | 0.00238
in methanol | 0.000689 | 0.000882 | 0.00112 | 0.00141 | 0.00177 | 0.00221 | 0.00274 | 0.00339 | 0.0041
in n-propanol | 0.000266 | 0.000362 | 0.000475 | 0.00064 | 0.000837 | 0.00109 | 0.0014 | 0.00179 | 0.00228
in water | 6.79e-06 | 9.67e-06 | 1.36e-05 | 1.87e-05 | 2.56e-05 | 3.43e-05 | 4.71e-05 | 6.23e-05 | 8.15e-05
